According to patent publication US20200255492A1, “LEPTIN PEPTIDES AND THEIR USE FOR TREATING NEUROLOGICAL DISORDERS” (UNIVERSITY OF DUNDEE, priority 2017, published 2020):

Columns and labels:
Akt = test: ELISA ratio of phospho-Akt to pan-Akt; assay type: cell-based, human; conditions: 1 nM; 3 h
Protocol: The human neuroblastoma cell line, SH-SY5Y (ECACC, UK) was maintained in Dulbecco's Modified Eagle Medium supplemented with glucose ([…]) and 10% (v/v) cosmic calf serum (Fisher Scientific, UK) at 37° C. in a humidified atmosphere of 5% CO2, 95% air and allowed to reach 70-80% confluence before seeding. Cells (passage 10-18) were plated at 10 000 cells per well in 96 well tissue culture plates (Nunc, VWR, UK) and at a density of 2×10^5 cells in 35 mm dishes for protein extraction. To induce differentiation, cells were cultured in DMEM supplemented with glucose ([…]), 1% (v/v) cosmic calf serum and 10 μM retinoic acid for 5 days. Thereafter they were incubated in DMEM supplemented with glucose ([…]), serum replacement 2 (2%; Sigma, UK) and 18 μM 5-fluorodeoxyuridine to inhibit proliferation of undifferentiated cells. The 50% of the medium was changed every 2-3 days and pharmacological treatment was carried out 7 days after switching to this medium. Reagents used were (from Sigma UK unless stated) 0.1-10 nM human leptin and leptin (116-130); 0.1-10 nM leptin (22-56; Bachem; Switzerland); 10 nM leptin (116-121) leptin (117-122), leptin (124-129) or leptin (125-130; all Severn Biotech, UK); 5 μM copper chloride; […], 5 μM WP1066 or 50 nM wortmannin. […]

mitochondria = test: MitoRed analysis of mitochondrial morphology after 6-OHDA (cellular Parkinson's Disease model); assay type: cell-based; conditions: 0.1 nM plus 100 μM 6-OHDA; 1 hour
Protocol: Cultures were established on 3 separate occasions in quadruplicate and stained with MitoRED to identify mitochondria after 1 hour of treatment. Statistical significance relative to untreated control is denoted with ** where P<0.01 and *** where P<0.001. Representative images of 100 μM 6-OHDA-treated MitoRED stained cultures (C) and 100 μM 6-OHDA and leptin116-130 co-treated MitoRED stained cultures are shown. Scale bar represents […].
The human neuroblastoma cell line, SH-SY5Y (ECACC, UK) was maintained in Dulbecco's Modified Eagle Medium supplemented with glucose ([…]) and 10% (v/v) cosmic calf serum (Fisher Scientific, UK) at 37° C. in a humidified atmosphere of 5% CO2, 95% air and allowed to reach 70-80% confluence before seeding. Cells (passage 10-18) were plated at 2×10^5 cells on 13 mm borosilicate class coverslips or at 10 000 cells per well in 96 well tissue culture plates (Nunc, VWR, UK) prior to treatment. Reagents used were (from Sigma UK unless stated) 1 nM human leptin, leptin (116-121), leptin (117-122) and leptin (117-125); 0.0001-1 nm murine leptin fragments leptin (116-121), leptin (117-122) and leptin (116-130); 100 μM 6-hydroxydopamine; 10 μM CuCl2; […] Aβ1-42.
Cells were treated with pre-warmed cell culture medium containing 1 μM MitoRed ((9-[2-(4′-Methylcoumarin-7′-oxycarbonyl)phenyl]-3,6-bis(diethylamino)xanthylium chloride) and returned to the incubator for 45 minutes. Following fixation in NBF for 15 minutes, cells were washed 3 times in PBS. Coverslips were mounted in fluorescence mountant onto microscope slides and imaged on the Zeiss Axio MR2 microscope. The mean mitochondrial area and index of fragmentation (number of mitochondria: total area of mitochondrial material) were calculated using Fiji.

For “SCSLPQTSGLQKPES (listed as Mus musculus) [leptin (116-130)]”, the “ratio of phosphorylated Akt to pan Akt” value (Akt) was “an increase in the ratio of phosphorylated Akt to pan Akt”, the “mitochondrial clumping (fragmentation index) with 6-OHDA” value (mitochondria) was “prevents 6-OHDA-associated mitochondrial clumping” and the “mitochondrial swelling (mean mitochondrial area) with 6-OHDA” value (mitochondria) was “prevents 6-OHDA-associated mitochondrial swelling”.
